Source: ChEMBL document CHEMBL3991601, “The target landscape of clinical kinase drugs” (Science, 2017)
Activity calls are given as the source filed them. For most assays here, no stated cut-off is given here; in the data, actives have a measured Kd and inactives only a lower limit.

What was measured:
[1] = target: Glycogen synthase kinase-3 alpha (Homo sapiens, UniProt P49840)
[2] = target: Cyclin-dependent kinase 12 (Homo sapiens, UniProt Q9NYV4)
Ephrin type-A receptor 4 = Ephrin type-A receptor 4 (Homo sapiens, UniProt P54764)
Chain of Ephrin type-A receptor 4 (P54764 whole entry): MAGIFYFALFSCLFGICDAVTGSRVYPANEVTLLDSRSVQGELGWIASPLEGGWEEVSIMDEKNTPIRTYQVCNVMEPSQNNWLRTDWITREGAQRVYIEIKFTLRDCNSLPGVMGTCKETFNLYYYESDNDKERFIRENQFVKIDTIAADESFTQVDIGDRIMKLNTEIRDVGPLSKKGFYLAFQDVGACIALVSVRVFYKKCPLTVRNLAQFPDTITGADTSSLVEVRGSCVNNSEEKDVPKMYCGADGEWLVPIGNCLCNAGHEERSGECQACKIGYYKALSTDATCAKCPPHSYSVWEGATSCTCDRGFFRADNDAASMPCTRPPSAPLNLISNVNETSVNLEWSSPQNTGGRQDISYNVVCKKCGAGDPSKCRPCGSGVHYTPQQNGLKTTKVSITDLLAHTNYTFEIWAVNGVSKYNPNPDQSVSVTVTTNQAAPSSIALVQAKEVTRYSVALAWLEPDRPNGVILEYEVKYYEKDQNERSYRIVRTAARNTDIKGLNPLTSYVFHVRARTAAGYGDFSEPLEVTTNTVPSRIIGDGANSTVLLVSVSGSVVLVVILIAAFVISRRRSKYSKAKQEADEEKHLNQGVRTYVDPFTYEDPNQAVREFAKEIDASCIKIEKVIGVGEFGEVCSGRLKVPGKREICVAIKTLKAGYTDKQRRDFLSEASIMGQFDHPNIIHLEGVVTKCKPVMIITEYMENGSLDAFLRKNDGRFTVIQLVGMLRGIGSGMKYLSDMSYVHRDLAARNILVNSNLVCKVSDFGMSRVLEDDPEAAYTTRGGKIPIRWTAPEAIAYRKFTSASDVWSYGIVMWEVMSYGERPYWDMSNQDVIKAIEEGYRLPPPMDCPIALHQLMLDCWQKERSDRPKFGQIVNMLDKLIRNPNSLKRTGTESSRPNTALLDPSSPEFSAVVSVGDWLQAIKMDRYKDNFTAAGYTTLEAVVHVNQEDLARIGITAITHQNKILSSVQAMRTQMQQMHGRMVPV

[3] = target: Tyrosine-protein kinase JAK1 (Homo sapiens, UniProt P23458)
[4] = target: GTP-binding nuclear protein Ran (Homo sapiens, UniProt P62826)
[5] = target: T1, Breakpoint cluster region protein (Homo sapiens, UniProt P11274)
T1 sequence (P11274 whole entry): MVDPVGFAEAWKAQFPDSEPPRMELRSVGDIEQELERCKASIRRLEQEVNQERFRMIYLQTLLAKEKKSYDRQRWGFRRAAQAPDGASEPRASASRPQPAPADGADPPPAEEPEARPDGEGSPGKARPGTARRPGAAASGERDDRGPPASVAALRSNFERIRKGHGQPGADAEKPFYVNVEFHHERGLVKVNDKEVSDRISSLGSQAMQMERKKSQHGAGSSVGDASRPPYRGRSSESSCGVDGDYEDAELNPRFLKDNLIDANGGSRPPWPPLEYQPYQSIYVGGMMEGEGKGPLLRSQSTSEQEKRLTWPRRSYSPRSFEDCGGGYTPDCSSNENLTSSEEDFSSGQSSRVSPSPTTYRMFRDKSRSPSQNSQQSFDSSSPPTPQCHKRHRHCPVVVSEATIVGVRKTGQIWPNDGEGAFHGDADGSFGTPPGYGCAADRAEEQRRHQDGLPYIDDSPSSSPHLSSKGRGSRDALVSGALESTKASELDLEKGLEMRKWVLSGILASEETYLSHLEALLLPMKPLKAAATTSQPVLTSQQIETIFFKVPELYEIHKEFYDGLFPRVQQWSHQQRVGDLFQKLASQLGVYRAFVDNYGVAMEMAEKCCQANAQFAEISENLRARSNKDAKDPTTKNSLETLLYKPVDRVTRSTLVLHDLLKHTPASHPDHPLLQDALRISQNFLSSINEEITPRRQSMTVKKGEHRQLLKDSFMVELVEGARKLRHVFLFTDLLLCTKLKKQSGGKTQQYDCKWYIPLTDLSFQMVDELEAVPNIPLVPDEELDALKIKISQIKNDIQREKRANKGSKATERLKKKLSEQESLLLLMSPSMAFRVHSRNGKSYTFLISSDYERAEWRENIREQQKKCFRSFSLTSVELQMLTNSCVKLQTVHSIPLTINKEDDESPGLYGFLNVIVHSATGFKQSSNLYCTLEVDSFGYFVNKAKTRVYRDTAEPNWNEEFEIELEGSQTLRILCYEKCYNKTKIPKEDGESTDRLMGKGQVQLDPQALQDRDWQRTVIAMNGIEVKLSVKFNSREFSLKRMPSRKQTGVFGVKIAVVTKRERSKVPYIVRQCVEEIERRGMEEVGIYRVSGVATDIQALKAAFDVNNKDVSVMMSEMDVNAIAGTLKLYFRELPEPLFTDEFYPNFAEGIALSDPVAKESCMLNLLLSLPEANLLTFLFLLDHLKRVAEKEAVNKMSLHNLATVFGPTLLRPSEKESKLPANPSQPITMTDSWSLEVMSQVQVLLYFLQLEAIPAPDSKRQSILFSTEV

[6] = target: Inosine-5'-monophosphate dehydrogenase 2 (Homo sapiens, UniProt P12268)
LIM domain kinase 2 = LIM domain kinase 2 (Homo sapiens, UniProt P53671)
[7] = target: RAC-gamma serine/threonine-protein kinase (Homo sapiens, UniProt Q9Y243)
Chain of RAC-gamma serine/threonine-protein kinase (Q9Y243 whole entry): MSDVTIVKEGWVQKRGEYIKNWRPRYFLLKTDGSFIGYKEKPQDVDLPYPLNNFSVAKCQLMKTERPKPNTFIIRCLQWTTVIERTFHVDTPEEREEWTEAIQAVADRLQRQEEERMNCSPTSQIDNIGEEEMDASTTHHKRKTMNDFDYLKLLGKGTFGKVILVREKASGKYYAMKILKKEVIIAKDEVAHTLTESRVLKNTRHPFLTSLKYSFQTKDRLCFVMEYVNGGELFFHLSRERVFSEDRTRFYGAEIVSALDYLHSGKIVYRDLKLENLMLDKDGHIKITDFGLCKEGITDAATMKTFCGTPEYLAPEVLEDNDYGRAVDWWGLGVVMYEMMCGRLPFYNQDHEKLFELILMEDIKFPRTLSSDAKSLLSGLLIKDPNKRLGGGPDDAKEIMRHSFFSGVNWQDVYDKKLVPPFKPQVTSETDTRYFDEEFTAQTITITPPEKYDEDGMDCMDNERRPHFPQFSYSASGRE

[8] = target: Mitogen-activated protein kinase 8 (Homo sapiens, UniProt P45983)
[9] = target: Ribosomal protein S6 kinase alpha-4 (Homo sapiens, UniProt O75676)
[10] = target: Casein kinase I isoform gamma-1 (Homo sapiens, UniProt Q9HCP0)
Chain of Casein kinase I isoform gamma-1 (Q9HCP0 whole entry, canonical isoform): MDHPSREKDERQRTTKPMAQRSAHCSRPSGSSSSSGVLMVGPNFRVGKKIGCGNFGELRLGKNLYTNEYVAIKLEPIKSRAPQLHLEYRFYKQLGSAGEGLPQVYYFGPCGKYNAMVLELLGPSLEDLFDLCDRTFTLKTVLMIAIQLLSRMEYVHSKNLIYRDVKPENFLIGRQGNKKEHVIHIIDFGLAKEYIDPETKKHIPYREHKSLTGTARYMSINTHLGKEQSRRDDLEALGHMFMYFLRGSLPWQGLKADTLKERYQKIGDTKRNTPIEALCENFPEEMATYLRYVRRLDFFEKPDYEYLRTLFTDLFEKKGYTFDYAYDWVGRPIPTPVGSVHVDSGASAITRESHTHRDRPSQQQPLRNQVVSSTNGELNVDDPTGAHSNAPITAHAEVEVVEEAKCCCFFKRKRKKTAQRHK

[11] = target: Bone morphogenetic protein receptor type-1A (Homo sapiens, UniProt P36894)
[12] = target: cAMP-dependent protein kinase type II-alpha regulatory subunit (Homo sapiens, UniProt P13861)
Chain of cAMP-dependent protein kinase type II-alpha regulatory subunit (P13861 whole entry): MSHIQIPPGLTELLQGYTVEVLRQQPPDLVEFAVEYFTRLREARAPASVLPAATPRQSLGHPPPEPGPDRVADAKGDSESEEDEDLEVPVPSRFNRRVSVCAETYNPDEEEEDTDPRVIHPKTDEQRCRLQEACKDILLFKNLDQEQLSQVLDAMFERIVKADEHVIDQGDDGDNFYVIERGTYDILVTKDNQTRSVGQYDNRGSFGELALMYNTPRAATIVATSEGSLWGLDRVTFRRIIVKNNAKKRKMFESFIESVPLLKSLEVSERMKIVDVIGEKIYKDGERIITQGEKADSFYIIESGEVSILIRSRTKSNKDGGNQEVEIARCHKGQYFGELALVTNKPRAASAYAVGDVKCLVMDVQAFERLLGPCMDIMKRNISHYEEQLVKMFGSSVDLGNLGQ

[13] = target: Cyclin-dependent kinase 13 (Homo sapiens, UniProt Q14004)
Chain of Cyclin-dependent kinase 13 (Q14004 whole entry): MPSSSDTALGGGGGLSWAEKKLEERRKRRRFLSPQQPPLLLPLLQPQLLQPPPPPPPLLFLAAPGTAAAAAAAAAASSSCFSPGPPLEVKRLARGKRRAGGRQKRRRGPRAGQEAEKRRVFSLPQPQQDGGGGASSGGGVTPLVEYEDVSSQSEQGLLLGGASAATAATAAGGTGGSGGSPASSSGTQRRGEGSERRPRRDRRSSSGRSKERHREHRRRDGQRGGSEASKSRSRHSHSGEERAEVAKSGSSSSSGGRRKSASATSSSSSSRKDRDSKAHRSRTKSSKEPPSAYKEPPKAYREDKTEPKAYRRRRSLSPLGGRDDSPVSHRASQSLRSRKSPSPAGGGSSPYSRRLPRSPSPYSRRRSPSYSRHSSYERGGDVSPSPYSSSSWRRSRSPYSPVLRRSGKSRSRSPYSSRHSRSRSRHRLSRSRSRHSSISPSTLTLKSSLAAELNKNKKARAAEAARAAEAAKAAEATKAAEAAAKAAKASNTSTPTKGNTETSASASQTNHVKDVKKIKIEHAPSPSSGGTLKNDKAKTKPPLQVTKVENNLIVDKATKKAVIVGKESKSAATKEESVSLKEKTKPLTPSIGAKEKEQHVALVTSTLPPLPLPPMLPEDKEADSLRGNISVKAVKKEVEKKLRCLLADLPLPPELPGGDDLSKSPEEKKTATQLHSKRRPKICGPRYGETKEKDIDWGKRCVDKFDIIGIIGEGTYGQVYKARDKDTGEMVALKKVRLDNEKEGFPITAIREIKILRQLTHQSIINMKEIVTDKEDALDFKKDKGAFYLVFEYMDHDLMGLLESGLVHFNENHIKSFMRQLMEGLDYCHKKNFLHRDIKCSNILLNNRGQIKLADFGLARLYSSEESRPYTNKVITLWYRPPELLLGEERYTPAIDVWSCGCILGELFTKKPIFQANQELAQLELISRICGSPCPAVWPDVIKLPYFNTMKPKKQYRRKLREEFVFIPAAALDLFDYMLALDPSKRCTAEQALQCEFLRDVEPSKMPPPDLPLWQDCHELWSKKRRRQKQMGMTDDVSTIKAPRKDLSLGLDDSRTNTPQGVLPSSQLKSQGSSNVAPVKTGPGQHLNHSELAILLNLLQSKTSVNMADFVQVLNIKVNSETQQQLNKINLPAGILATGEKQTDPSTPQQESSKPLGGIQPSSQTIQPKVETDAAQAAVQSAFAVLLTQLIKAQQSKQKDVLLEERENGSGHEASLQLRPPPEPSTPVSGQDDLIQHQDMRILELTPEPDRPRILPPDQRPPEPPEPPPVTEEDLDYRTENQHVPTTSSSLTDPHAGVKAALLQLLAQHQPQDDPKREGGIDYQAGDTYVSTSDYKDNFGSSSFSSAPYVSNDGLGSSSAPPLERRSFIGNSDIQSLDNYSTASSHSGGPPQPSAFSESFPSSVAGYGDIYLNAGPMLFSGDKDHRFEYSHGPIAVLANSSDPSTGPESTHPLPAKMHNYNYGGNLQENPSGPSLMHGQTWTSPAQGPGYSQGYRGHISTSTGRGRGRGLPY

[14] = target: Mitogen-activated protein kinase 3 (Homo sapiens, UniProt P27361)
Chain of Mitogen-activated protein kinase 3 (P27361 whole entry): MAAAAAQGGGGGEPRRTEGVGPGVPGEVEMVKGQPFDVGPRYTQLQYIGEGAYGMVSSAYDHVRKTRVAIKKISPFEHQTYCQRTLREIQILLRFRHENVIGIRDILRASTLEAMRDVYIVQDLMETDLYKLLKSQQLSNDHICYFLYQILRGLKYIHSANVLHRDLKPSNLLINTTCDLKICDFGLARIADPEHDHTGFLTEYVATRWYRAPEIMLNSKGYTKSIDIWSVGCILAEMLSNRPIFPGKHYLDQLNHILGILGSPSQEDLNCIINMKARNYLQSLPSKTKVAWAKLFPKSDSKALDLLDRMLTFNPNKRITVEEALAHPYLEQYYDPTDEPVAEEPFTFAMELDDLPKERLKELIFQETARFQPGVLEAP

[15] = target: T2, Serine/threonine-protein kinase Chk1 (Homo sapiens, UniProt O14757)
T2 sequence (O14757 whole entry): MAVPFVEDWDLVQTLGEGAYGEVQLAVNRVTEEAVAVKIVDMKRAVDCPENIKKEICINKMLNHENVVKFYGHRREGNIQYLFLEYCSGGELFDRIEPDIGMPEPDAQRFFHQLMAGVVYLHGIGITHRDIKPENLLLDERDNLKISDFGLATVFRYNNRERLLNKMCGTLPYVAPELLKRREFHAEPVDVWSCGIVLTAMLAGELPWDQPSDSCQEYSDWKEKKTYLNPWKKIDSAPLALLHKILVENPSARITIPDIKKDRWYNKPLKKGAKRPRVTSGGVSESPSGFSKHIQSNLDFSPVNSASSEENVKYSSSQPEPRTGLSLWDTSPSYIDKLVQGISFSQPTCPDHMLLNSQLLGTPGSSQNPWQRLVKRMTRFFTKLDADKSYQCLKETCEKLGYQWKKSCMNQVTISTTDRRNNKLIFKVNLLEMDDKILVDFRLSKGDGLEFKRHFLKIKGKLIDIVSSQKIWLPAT

Chain of Glycogen synthase kinase-3 alpha (P49840 whole entry): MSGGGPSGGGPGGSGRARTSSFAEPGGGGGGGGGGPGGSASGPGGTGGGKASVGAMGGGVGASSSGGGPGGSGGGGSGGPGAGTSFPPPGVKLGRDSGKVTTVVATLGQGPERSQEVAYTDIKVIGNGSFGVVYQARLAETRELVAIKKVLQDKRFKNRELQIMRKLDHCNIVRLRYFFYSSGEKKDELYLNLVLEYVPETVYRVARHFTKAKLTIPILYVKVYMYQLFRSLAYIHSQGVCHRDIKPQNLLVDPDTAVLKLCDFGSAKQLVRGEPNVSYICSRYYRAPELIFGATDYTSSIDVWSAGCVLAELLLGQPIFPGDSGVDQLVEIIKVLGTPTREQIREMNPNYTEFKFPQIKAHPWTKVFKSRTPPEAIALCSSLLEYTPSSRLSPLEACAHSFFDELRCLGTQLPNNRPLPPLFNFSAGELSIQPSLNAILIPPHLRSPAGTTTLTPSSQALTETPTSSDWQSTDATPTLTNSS

Compound | Kd [1] | Kd [2] | Kd (Ephrin type-A receptor 4) | Kd [3] | Kd [4] | Kd [5] | Kd [6] | Kd (LIM domain kinase 2) | Kd [7] | Kd [8] | Kd [9] | Kd [10] | Kd [11] | Kd [12] | Kd [13] | Kd [14] | Kd [15]
O=C(O)[C@]1(Cc2cccc(Nc3nccs3)n2)CC[C@@H](Oc2cccc(Cl)c2F)CC1 [MK-5108] | > 30 µM (inactive) | > 30 µM (inactive) | > 30 µM (inactive) | > 30 µM (inactive) | > 30 µM (inactive) | 0.011 µM (active) | > 30 µM (inactive) | > 30 µM (inactive) | > 30 µM (inactive) | 1.15 µM (active) | > 30 µM (inactive) | > 30 µM (inactive) | > 30 µM (inactive) | > 30 µM (inactive) | > 30 µM (inactive) | > 30 µM (inactive) | > 30 µM (inactive)
C1=C/COCc2cc(ccc2OCCN2CCCC2)Nc2nccc(n2)-c2cccc(c2)COC/1 [PACRITINIB] | 5.19 µM (active) | > 30 µM (inactive) | > 30 µM (inactive) | > 30 µM (inactive) | > 30 µM (inactive) | > 30 µM (inactive) | > 30 µM (inactive) | 52.1 µM (active) | > 30 µM (inactive) | 1.96 µM (active) | > 30 µM (inactive) | > 30 µM (inactive) | > 30 µM (inactive) | > 30 µM (inactive) | > 30 µM (inactive) | > 30 µM (inactive) | > 30 µM (inactive)
CNC(=O)c1cc(Oc2ccc(NC(=O)Nc3ccc(Cl)c(C(F)(F)F)c3)c(F)c2)ccn1 [REGORAFENIB] | > 30 µM (inactive) | > 30 µM (inactive) | > 30 µM (inactive) | > 30 µM (inactive) | > 30 µM (inactive) | 0.739 µM (active) | > 30 µM (inactive) | > 30 µM (inactive) | > 30 µM (inactive) | > 30 µM (inactive) | > 30 µM (inactive) | > 30 µM (inactive) | > 30 µM (inactive) | > 30 µM (inactive) | > 30 µM (inactive) | > 30 µM (inactive) | > 30 µM (inactive)
COc1cc(OC)c(/C=C/S(=O)(=O)Cc2ccc(OC)c(NCC(=O)O)c2)c(OC)c1 [RIGOSERTIB] | > 30 µM (inactive) | > 30 µM (inactive) | > 30 µM (inactive) | > 30 µM (inactive) | > 30 µM (inactive) | > 30 µM (inactive) | > 30 µM (inactive) | > 30 µM (inactive) | > 30 µM (inactive) | > 30 µM (inactive) | > 30 µM (inactive) | > 30 µM (inactive) | > 30 µM (inactive) | > 30 µM (inactive) | > 30 µM (inactive) | > 30 µM (inactive) | > 30 µM (inactive)
CNC(=O)CN1CCC(Oc2cc3c(Nc4cccc(Cl)c4F)ncnc3cc2OC)CC1 [SAPITINIB] | > 30 µM (inactive) | > 30 µM (inactive) | 7.4 µM (active) | > 30 µM (inactive) | > 30 µM (inactive) | > 30 µM (inactive) | > 30 µM (inactive) | > 30 µM (inactive) | > 30 µM (inactive) | > 30 µM (inactive) | > 30 µM (inactive) | > 30 µM (inactive) | > 30 µM (inactive) | > 30 µM (inactive) | > 30 µM (inactive) | > 30 µM (inactive) | > 30 µM (inactive)

The next lines start with the values.

Kd [1] | Kd [2] | Kd (Ephrin type-A receptor 4) | Kd [3] | Kd [4] | Kd [5] | Kd [6] | Kd (LIM domain kinase 2) | Kd [7] | Kd [8] | Kd [9] | Kd [10] | Kd [11] | Kd [12] | Kd [13] | Kd [14] | Kd [15] | Compound
> 30 µM (inactive) | > 30 µM (inactive) | > 30 µM (inactive) | > 30 µM (inactive) | > 30 µM (inactive) | > 30 µM (inactive) | > 30 µM (inactive) | > 30 µM (inactive) | > 30 µM (inactive) | > 30 µM (inactive) | > 30 µM (inactive) | > 30 µM (inactive) | > 30 µM (inactive) | > 30 µM (inactive) | > 30 µM (inactive) | > 30 µM (inactive) | > 30 µM (inactive) | CN1CCC(CNc2ccc3ncc(-c4cccc(OC(F)(F)F)c4)n3n2)CC1 [SGI-1776]
> 30 µM (inactive) | > 30 µM (inactive) | > 30 µM (inactive) | > 30 µM (inactive) | > 30 µM (inactive) | > 30 µM (inactive) | > 30 µM (inactive) | > 30 µM (inactive) | > 30 µM (inactive) | > 30 µM (inactive) | > 30 µM (inactive) | > 30 µM (inactive) | > 30 µM (inactive) | > 30 µM (inactive) | > 30 µM (inactive) | > 30 µM (inactive) | > 30 µM (inactive) | O=c1sn(-c2cccc3ccccc23)c(=O)n1Cc1ccccc1 [TIDEGLUSIB]
> 30 µM (inactive) | > 30 µM (inactive) | 5.56 µM (active) | > 30 µM (inactive) | > 30 µM (inactive) | 0.16 µM (active) | > 30 µM (inactive) | > 30 µM (inactive) | > 30 µM (inactive) | > 30 µM (inactive) | > 30 µM (inactive) | > 30 µM (inactive) | > 30 µM (inactive) | > 30 µM (inactive) | > 30 µM (inactive) | > 30 µM (inactive) | > 30 µM (inactive) | COc1cc2nccc(Oc3ccc(NC(=O)Nc4cc(C)on4)c(Cl)c3)c2cc1OC [TIVOZANIB]
> 30 µM (inactive) | > 30 µM (inactive) | > 30 µM (inactive) | > 30 µM (inactive) | > 30 µM (inactive) | > 30 µM (inactive) | > 30 µM (inactive) | > 30 µM (inactive) | > 30 µM (inactive) | > 30 µM (inactive) | > 30 µM (inactive) | > 30 µM (inactive) | > 30 µM (inactive) | > 30 µM (inactive) | > 30 µM (inactive) | > 30 µM (inactive) | > 30 µM (inactive) | CC(=O)Nc1cccc(-n2c(=O)n(C3CC3)c(=O)c3c(Nc4ccc(I)cc4F)n(C)c(=O)c(C)c32)c1 [TRAMETINIB]
> 30 µM (inactive) | > 30 µM (inactive) | > 30 µM (inactive) | > 30 µM (inactive) | > 30 µM (inactive) | > 30 µM (inactive) | > 30 µM (inactive) | > 30 µM (inactive) | > 30 µM (inactive) | > 30 µM (inactive) | > 30 µM (inactive) | > 30 µM (inactive) | > 30 µM (inactive) | > 30 µM (inactive) | > 30 µM (inactive) | > 30 µM (inactive) | > 30 µM (inactive) | CN1N=C(N)c2cn([C@@H]3O[C@H](COP(=O)(O)O)[C@@H](O)[C@H]3O)c3ncnc1c23 [TRICIRIBINE PHOSPHATE]
